From the NIST ThermoML archive (doi:10.1021/je025641j) come the findings set out here.

SMILES strings stand for the structures. Numbers after ± are expanded uncertainties.

A short description of one series: molar enthalpy of vaporization or sublimation. Particulars: 298.15 K; Crystal; Static calorimetry.
For `COc1ccc(O)cc1` [4-methoxyphenol], the molar enthalpy was determined as 22.6 ± 0.43 kcal/mol. On the same count and under the same terms, under `COc1cc(O)cc(OC)c1` [3,5-dimethoxyphenol] stands 24.2 ± 0.717 kcal/mol.

`COc1cccc(OC)c1O` [1,3-dimethoxy-2-hydroxybenzene]: the molar enthalpy amounted to 23.5 ± 0.43 kcal/mol.

Still in this series, the particulars now being: 298.15 K; Liquid; Static calorimetry.
Regarding `COc1cccc(O)c1` [3-methoxyphenol], the molar enthalpy is 18.1 ± 0.43 kcal/mol. Still for that read-out and setting: the value for `COc1ccccc1O` [2-methoxyphenol] was 15 ± 0.263 kcal/mol; that for `COc1cccc(O)c1OC` [2,3-dimethoxyphenol] was 18.3 ± 0.406 kcal/mol.
